Reference: article PMC5746282, “Polypyridylruthenium(II) complexes exert anti-schistosome activity and inhibit parasite acetylcholinesterases” (PLoS Neglected Tropical Diseases, 2017)
Where two headings read alike, the source gives them in different places.

Key:
[1] = system: human bile duct cell line H69; assay: MTT cytotoxicity assay; assay type: cell-based; settings: 0.1 μM, 72 h
[2] = target: acetylcholinesterase (AChE); assay type: biochemical, S. mansoni
[3] = target: acetylcholinesterase (AChE); assay type: biochemical, S. haematobium
[4] = system: acetylcholinesterase (AChE); assay type: biochemical, S. mansoni; settings: 1 µM
[5] = system: nucleotide pyrophosphatase-phosphodiesterase 5 (SmNPP-5); assay type: biochemical, S. mansoni; settings: 10 µM
[6] = system: alkaline phosphatase (AP); assay type: biochemical, S. mansoni; settings: 10 µM

Compound: COP(=O)(OC)OC=C(Cl)Cl [Dichlorvos, dichlorvos]
- cells killed [1]: 100%

Compound: [Ru(phen)2(Me2bpy)]^2+
- IC50 [2]: 67 ± 11.6 µM
- AChE Inhibition (%) ([2]; 1 µM): 9.3 ± 1.8%
- IC50 [3]: 90.2 ± 1.2 µM
- AChE Inhibition (%) ([3]; 1 µM): 13.3 ± 1.8%
- AChE Inhibition (%) [4]: 66.5 ± 5.8%
- SmNPP-5 Inhibition (%) [5]: 2%
- AP Inhibition (%) [6]: 3%
